Measured values reported in US7960374B2, “Tricyclic compounds, compositions, and methods useful in the treatment or prophylaxis of 5-HT6 receptor-related disorders” (Proximagen Limited, priority 2006, dated 2011).
pIC50, pKi: −log10 of the molar value.

How the values were obtained:
human 5-HT6 receptor [1] = molecular target: T1, human 5-HT6 receptor (Homo sapiens, UniProt P50406); assay: 5-HT6 receptor binding assay ([3H]-LSD, SPA); settings: for pKi: [3H]-LSD as labeled ligand, membranes of HEK293 cells expressing human 5-HT6, read-out: Binding affinity (Ki) at the human 5-HT6 receptor
T1 construct: expressed in transfected cells; host or cells: HEK293

human 5-HT6 receptor [2] = molecular target: T1, human 5-HT6 receptor; assay: 5-HT6 intrinsic activity assay (inhibition of 5-HT induced increase in cAMP); type: cell-based; settings: read-out: Antagonist potency at the human 5-HT6 receptor, fKi (= IC50,corr)
Experimental: (b) 5-HT6 Intrinsic Activity Assay
Briefly, HEK293/5-HT6 cells were seeded in polylysine coated 96-well plates at a density of 25,000/well and grown in DMEM (Dulbecco's Modified Eagle Medium) (without phenol-red) containing 5% dialyzed Foetal Bovine Serum for 48 h at 37° C. in a 5% CO2 incubator. The medium was then aspirated and replaced by 0.1 ml assay medium (Hanks Balance Salt Solution containing 20 mM HEPES, 1.5 mM isobutylmethylxanthine and 1 mg/ml bovine serum albumin). After addition of test substances, 50 μl dissolved in assay medium, the cells were incubated for 10 min at 37° C. in a 5% CO2 incubator. The medium was again aspirated and the cAMP content was determined using a radioactive cAMP kit (Amersham Pharmacia Biotech, BIOTRAK RPA559).

T1 sequence (P50406 whole entry): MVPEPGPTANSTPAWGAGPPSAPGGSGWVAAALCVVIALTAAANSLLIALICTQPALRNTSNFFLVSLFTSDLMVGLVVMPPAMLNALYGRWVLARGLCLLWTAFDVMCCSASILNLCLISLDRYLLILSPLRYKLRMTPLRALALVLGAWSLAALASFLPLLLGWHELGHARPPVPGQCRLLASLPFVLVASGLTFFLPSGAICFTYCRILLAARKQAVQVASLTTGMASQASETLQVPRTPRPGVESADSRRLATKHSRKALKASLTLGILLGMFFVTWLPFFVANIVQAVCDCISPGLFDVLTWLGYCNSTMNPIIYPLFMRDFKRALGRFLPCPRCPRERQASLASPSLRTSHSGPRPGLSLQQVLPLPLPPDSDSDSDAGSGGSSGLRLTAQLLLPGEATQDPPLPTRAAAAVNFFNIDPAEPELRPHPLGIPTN

`CN1CCOc2ccc3c(ccn3S(=O)(=O)c3ccccc3)c2C1` [Example 5, 2-Methyl-8-(phenylsulfonyl)-1,3,4,8-tetrahydro-2H-[1,4]oxazepino[6,7-e]indole] was tested, and the pKi (human 5-HT6 receptor [1]) was 8.70 and the pIC50 (human 5-HT6 receptor [2]) was 8.52.

With `NCCc1c[nH]c2ccc(O)cc12` [Example 5-HT, 5-hydroxytryptamine, reference compound] the Hill coefficient (human 5-HT6 receptor [1]; three experiments) was 0.94 (SD 0.09).

Work on `CN1CCOc2ccc3c(ccn3S(=O)(=O)c3ccc4ncsc4c3)c2C1` [Example 10, 8-(1,3-Benzothiazol-6-ylsulfonyl)-2-methyl-1,3,4,8-tetrahydro-2H-[1,4]oxazepino[6,7-e]indole] yielded a pKi (human 5-HT6 receptor [1]) of 9.00 and a pIC50 (human 5-HT6 receptor [2]) of 9.00.

In the case of `O=S(=O)(c1ccccc1)n1ccc2c3c(ccc21)OCCNC3` [Example 49, 8-(Phenylsulfonyl)-1,3,4,8-tetrahydro-2H-[1,4]oxazepino[6,7-e]indole], the pKi (human 5-HT6 receptor [1]) was 8.70 and the pIC50 (human 5-HT6 receptor [2]) was 8.30.
